Measurements: the supplement of paper PMC10307832

Experiments:
Test in all cases: relative viability (nuclei count vs DMSO), 5 days (fraction); higher = more cells survive
BEN = test system: BEN
Outline: (§1)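 Relative viability is defined as nuclei in treated wells over nuclei in vehicle wells. Duplicate plates were run and medians reported. Lung cancer cell lines in 1536-well plates were dosed by pin tool one day after seeding, with one drug or with a fixed anchor-drug dose plus five library-drug doses (not always all listed) in √10 steps, and nuclei were counted after 5 days.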

NCI-H2085 = test system: NCI-H2085
Outline: as §1

LOU-NH91 = test system: LOU-NH91
Outline: as §1

LCLC-103H = test system: LCLC-103H
Outline: as §1

RERF-LC-KJ = test system: RERF-LC-KJ
Outline: as §1

A-427 = test system: A-427
Outline: as §1

CAL-12T = test system: CAL-12T
Outline: as §1

NCI-H460 = test system: NCI-H460
Outline: as §1

NCI-H727 = test system: NCI-H727
Outline: as §1

HARA = test system: HARA
Outline: as §1

NCI-H647 = test system: NCI-H647
Outline: as §1

ABC-1 = test system: ABC-1
Outline: as §1

NCI-H520 = test system: NCI-H520
Outline: as §1

NCI-H1944 = test system: NCI-H1944
Outline: as §1

NCI-H661 = test system: NCI-H661
Outline: as §1

NCI-H1651 = test system: NCI-H1651
Outline: as §1

NCI-H2126 = test system: NCI-H2126
Outline: as §1

NCI-H1975 = test system: NCI-H1975
Outline: as §1

NCI-H596 = test system: NCI-H596
Outline: as §1

NCI-H838 = test system: NCI-H838
Outline: as §1

NCI-H1734 = test system: NCI-H1734
Outline: as §1

NCI-H1666 = test system: NCI-H1666
Outline: as §1

**Q.** What does the source list for `CCNC(=O)c1noc(-c2cc(C(C)C)c(O)cc2O)c1-c1ccc(CN2CCOCC2)cc1` [Luminespib] + CS(=O)(=O)N1CCN(Cc2cc3nc(-c4cccc5[nH]ncc45)nc(N4CCOCC4)c3s2)CC1 [Pictilisib] (partner 1 µM)?
**A.** relative viability (BEN; first compound 0.002 µM): 0.514; relative viability (BEN; first compound 0.006325 µM): 0.597; relative viability (BEN; first compound 0.02 µM): 0.332; relative viability (BEN; first compound 0.06325 µM): 0.266; relative viability (BEN; first compound 0.2 µM): 0.191; relative viability (NCI-H2085; first compound 0.002 µM): 0.448; relative viability (NCI-H2085; first compound 0.006325 µM): 0.511; relative viability (NCI-H2085; first compound 0.02 µM): 0.354; relative viability (NCI-H2085; first compound 0.06325 µM): 0.51; relative viability (NCI-H2085; first compound 0.2 µM): 0.28; relative viability (LOU-NH91; first compound 0.002 µM): 0.53; relative viability (LOU-NH91; first compound 0.006325 µM): 0.566; relative viability (LOU-NH91; first compound 0.02 µM): 0.469; relative viability (LOU-NH91; first compound 0.06325 µM): 0.367; relative viability (LOU-NH91; first compound 0.2 µM): 0.358; relative viability (LCLC-103H; first compound 0.002 µM): 0.629; relative viability (LCLC-103H; first compound 0.006325 µM): 0.5; relative viability (LCLC-103H; first compound 0.02 µM): 0.466; relative viability (LCLC-103H; first compound 0.06325 µM): 0.651; relative viability (LCLC-103H; first compound 0.2 µM): 0.271; relative viability (RERF-LC-KJ; first compound 0.002 µM): 0.665; relative viability (RERF-LC-KJ; first compound 0.006325 µM): 0.636; relative viability (RERF-LC-KJ; first compound 0.02 µM): 0.375; relative viability (RERF-LC-KJ; first compound 0.06325 µM): 0.231; relative viability (RERF-LC-KJ; first compound 0.2 µM): 0.182; relative viability (A-427; first compound 0.002 µM): 0.62; relative viability (A-427; first compound 0.006325 µM): 0.634; relative viability (A-427; first compound 0.02 µM): 0.441; relative viability (A-427; first compound 0.06325 µM): 0.733; relative viability (A-427; first compound 0.2 µM): 0.35; relative viability (CAL-12T; first compound 0.002 µM): 0.336; relative viability (CAL-12T; first compound 0.006325 µM): 0.395; relative viability (CAL-12T; first compound 0.02 µM): 0.25; relative viability (CAL-12T; first compound 0.06325 µM): 0.111; relative viability (CAL-12T; first compound 0.2 µM): 0.143; relative viability (NCI-H460; first compound 0.002 µM): 0.35; relative viability (NCI-H460; first compound 0.006325 µM): 0.243; relative viability (NCI-H460; first compound 0.02 µM): 0.372; relative viability (NCI-H460; first compound 0.06325 µM): 0.116; relative viability (NCI-H460; first compound 0.2 µM): 0.0892; relative viability (NCI-H727; first compound 0.002 µM): 0.427; relative viability (NCI-H727; first compound 0.006325 µM): 0.399; relative viability (NCI-H727; first compound 0.02 µM): 0.264; relative viability (NCI-H727; first compound 0.06325 µM): 0.123; relative viability (NCI-H727; first compound 0.2 µM): 0.166; relative viability (HARA; first compound 0.002 µM): 0.295; relative viability (HARA; first compound 0.006325 µM): 0.396; relative viability (HARA; first compound 0.02 µM): 0.174; relative viability (HARA; first compound 0.06325 µM): 0.531; relative viability (HARA; first compound 0.2 µM): 0.0744; relative viability (NCI-H647; first compound 0.002 µM): 0.511; relative viability (NCI-H647; first compound 0.006325 µM): 0.439; relative viability (NCI-H647; first compound 0.02 µM): 0.249; relative viability (NCI-H647; first compound 0.06325 µM): 0.0858; relative viability (NCI-H647; first compound 0.2 µM): 0.0845; relative viability (ABC-1; first compound 0.002 µM): 0.695; relative viability (ABC-1; first compound 0.006325 µM): 0.693; relative viability (ABC-1; first compound 0.02 µM): 0.407; relative viability (ABC-1; first compound 0.06325 µM): 0.249; relative viability (ABC-1; first compound 0.2 µM): 0.228; relative viability (NCI-H520; first compound 0.002 µM): 0.298; relative viability (NCI-H520; first compound 0.006325 µM): 0.334; relative viability (NCI-H520; first compound 0.02 µM): 0.209; relative viability (NCI-H520; first compound 0.06325 µM): 0.176; relative viability (NCI-H520; first compound 0.2 µM): 0.196; relative viability (NCI-H1944; first compound 0.002 µM): 0.337; relative viability (NCI-H1944; first compound 0.006325 µM): 0.258; relative viability (NCI-H1944; first compound 0.02 µM): 0.262; relative viability (NCI-H1944; first compound 0.06325 µM): 0.28; relative viability (NCI-H1944; first compound 0.2 µM): 0.22; relative viability (NCI-H661; first compound 0.002 µM): 0.357; relative viability (NCI-H661; first compound 0.006325 µM): 0.344; relative viability (NCI-H661; first compound 0.02 µM): 0.287; relative viability (NCI-H661; first compound 0.06325 µM): 0.276; relative viability (NCI-H661; first compound 0.2 µM): 0.223; relative viability (NCI-H1651; first compound 0.002 µM): 0.592; relative viability (NCI-H1651; first compound 0.006325 µM): 0.608; relative viability (NCI-H1651; first compound 0.02 µM): 0.403; relative viability (NCI-H1651; first compound 0.06325 µM): 0.136; relative viability (NCI-H1651; first compound 0.2 µM): 0.162; relative viability (NCI-H2126; first compound 0.002 µM): 0.464; relative viability (NCI-H2126; first compound 0.006325 µM): 0.503; relative viability (NCI-H2126; first compound 0.02 µM): 0.399; relative viability (NCI-H2126; first compound 0.06325 µM): 0.49; relative viability (NCI-H2126; first compound 0.2 µM): 0.273; relative viability (NCI-H1975; first compound 0.002 µM): 0.26; relative viability (NCI-H1975; first compound 0.006325 µM): 0.257; relative viability (NCI-H1975; first compound 0.02 µM): 0.135; relative viability (NCI-H1975; first compound 0.06325 µM): 0.115; relative viability (NCI-H1975; first compound 0.2 µM): 0.106; relative viability (NCI-H596; first compound 0.002 µM): 0.343; relative viability (NCI-H596; first compound 0.006325 µM): 0.404; relative viability (NCI-H596; first compound 0.06325 µM): 0.275; relative viability (NCI-H596; first compound 0.2 µM): 0.267; relative viability (NCI-H838; first compound 0.002 µM): 0.48; relative viability (NCI-H838; first compound 0.006325 µM): 0.441; relative viability (NCI-H838; first compound 0.02 µM): 0.223; relative viability (NCI-H838; first compound 0.06325 µM): 0.117; relative viability (NCI-H838; first compound 0.2 µM): 0.111; relative viability (NCI-H1734; first compound 0.002 µM): 0.519; relative viability (NCI-H1734; first compound 0.006325 µM): 0.43; relative viability (NCI-H1734; first compound 0.02 µM): 0.329; relative viability (NCI-H1734; first compound 0.06325 µM): 0.14; relative viability (NCI-H1734; first compound 0.2 µM): 0.146; relative viability (NCI-H1666; first compound 0.002 µM): 0.423; relative viability (NCI-H1666; first compound 0.006325 µM): 0.375; relative viability (NCI-H1666; first compound 0.02 µM): 0.315; relative viability (NCI-H1666; first compound 0.06325 µM): 0.235; relative viability (NCI-H1666; first compound 0.2 µM): 0.145
